Data from patent publication US20200108043A1, “COMPOUNDS AND COMPOSITIONS FOR EXTENDING LIFESPAN OF A SUBJECT” (YALE UNIVERSITY, priority 2017, published 2020).
“Also recorded” adds a separate entry of the source. Residues, ends and D or L forms follow the SMILES beside them. *: point of attachment. Cbz = O=C(OCc1ccccc1)*

Key:
proteasome = molecular target: T1, proteasome (Saccharomyces cerevisiae, UniProt P30656); test: Proteasome assay with fluorogenic substrate Suc-LLVY-AMC on yeast protein extracts; type: biochemical
T1 construct: with 50 μg of total protein in 200 μL of lysis buffer; endogenous in cells; host or cells: S. cerevisiae BY4741 wild-type or ΔUBR2 cells, glass-bead lysate (total protein extract)
Description: For protein extraction, 50 mL of cells were grown for 18 hours to an OD600 of approximately 0.8, then transferred to a 50 mL conical tube and centrifuged at 4255×g for 5 minutes at room temperature. The supernatant was discarded, and the cells were re-suspended in 150 μL of cold lysis buffer (50 mM Tris-HCl, pH 7.5, 0.5 mM EDTA, 5 mM MgCl2, with complete ULTRA mini protease inhibitor tablets, EDTA free) and transferred to a 1.5 mL tube. A ¼ volume of 500-750 μm glass beads (Acros Organics 397641000) was added to each tube. For 10 rounds, the tubes were chilled in ice water for 1 minute, then vortexed at maximum speed for 30 seconds to physically rupture the cells, and returned to the ice water. Samples were then spun for 3 minutes at 2500×g and 4° C., and the supernatant was transferred to a fresh tube. The solution was further clarified by centrifugation at 8000×g for 10 minutes at 4° C., and the supernatant was transferred to a fresh tube. Protein concentration was measured using a Nanodrop measuring the absorbance of the sample at 280 nm.
The proteasome assay used was described in Kruegel, et al. PLoS Genet. 7, (2011). The assay was performed in a 96-well clear-bottom plate (Costar 3603) with 50 μg of total protein in 200 μL of lysis buffer. The fluorogenic proteasome substrate Suc-LLVY-AMC (Bachem 1-1395) was added to a final concentration of 100 μM. Fluorescence intensity with an excitation wavelength of 380 nm and an emission wavelength of 460 nm was recorded at 5-minute intervals using a Neo2 plate reader (BioTek) set to mix constantly and maintain 30° C. Negative control reactions were performed in the presence of 50 μM MG132 (Sigma 474787), a proteasome inhibitor.

S. cerevisiae = type: cell-based
Description: To obtain the single-cell level data for the age and generation-durations of replicatively aging mother cells, data reported in Liu, P., et al., Cell Rep. 634-644 (2015) was re-analyzed. The data was collected in the same media condition (CSM 2% glucose) as reported elsewhere herein. Cells were grown for ˜24 hours in CSM 2% glucose prior to loading to the microfluidic device. Once cells were loaded, media was swapped to provide CSM 2% glucose control media (untreated), media containing DMSO as a vehicle control (American Bio AB00435), media containing 10 μM terreic acid (Sigma SML0480), media containing 10 μM mycophenolic acid (Sigma M5255), or media containing another compound at the indicated concentration. An automated microscope was used to track […], and replicative lifespan was later determined by counting the number of daughters produced before death. In the case of compound validation, only newborn cells were included in the lifespan experiment. To compare the replicative lifespan of labeled and unlabeled cells, only cells that were present within the traps at the start of the experiment were included. For these experiments, cells were loaded to the microfluidic device at an increased rate of 100 μL/min to increase the number of trapped mother cells. Green fluorescent images were also taken at the start of the experiment to confirm that the cells were visibly labeled.
Differences in lifespan characteristics were assessed through Log-Rank test using MATLAB with a cut-off value of P=0.05. The script for Log-Rank test was downloaded from MATLAB. Differences in proteasome activity were assessed using the unpaired, two-tailed, parametric t-test function of the GraphPad Prism software.
The Longevity Placement Test (LPT) was designed as a mutually exclusive, collectively exhaustive test to determine the relationship of a longevity intervention to a known genetic regulator of lifespan. For a given intervention that extends lifespan, any of three possible relationships may exist relative to a known genetic regulator of lifespan. (1) The intervention may act to extend lifespan independently from the known regulator. (2) The […] may act downstream from the known regulator, converging on a single component of the known regulator's lifespan pathway. (3) The intervention may act upstream from or upon the known regulator, ultimately modulating lifespan through the genetic regulator.
In Step 1 of the LPT, the longevity intervention is applied to a strain in which a genetic regulator of lifespan is deleted. In the event that lifespan extension from the longevity intervention is observed in this background, only possibilities (1) and (2) above remain valid (FIG. 7B). If no lifespan extension is observed, then possibilities (2) and (3) remain valid. Possibility (2) cannot be ruled out in this step, since non-saturating action by the genetic regulator could leave room for lifespan extension by the longevity intervention, while saturating action would preclude it.
In Step 2 of the LPT, an epistatic agent, which prevents lifespan extension from the longevity agent, is applied to a strain in which some upstream member of the genetic regulator's lifespan pathway has been modified to extend lifespan. This step differentiates possibility (2) from the remaining possibility after Step 1. In the event that lifespan extension from the genetic regulator's pathway is suppressed by the epistatic agent, this determines that possibility (2) is correct. In the event that no epistasis is observed, the remaining possibility, (1) or (3), is correct (FIG. 7C).

C. elegans = test: Roundworm (C. elegans) lifespan extension; type: in vivo, Caenorhabditis elegans; conditions: 10 μM in NGM plates, treated for duration of lifespan, vs control
Description: Synchronized animals were obtained using the egg-laying method, allowing young […] eggs for 4 hours on bacteria-seeded plates. For each treatment group, 120 synchronized day-1 adults were used. All experiments were carried out at 20° C. Treatment groups were blinded. Nematode growth media (NGM) plates were made for each treatment group: Negative control (DMSO), Mycophenolic Acid (10 μM in DMSO), and Terreic Acid (10 μM in DMSO). The compounds were added to NGM media before pouring the plates. The plates were then dried overnight before moving them to 4° C. to prevent degradation of the compounds. Plates were seeded with 100 μL of 10× concentrated OP50 E. coli, and dried overnight at room temperature. Plates were UV treated with a UVP CL-1000 Ultraviolet Crosslinker, run twice on the energy setting ‘9999’ for about 5 minutes each run. Worms were transferred to new plates every 2-4 days. Viability was scored every day, with death determined by lack of response to a platinum wire. Missing worms, or those that died due to internal hatching were censored.

Saccharomyces cerevisiae = test: High-Life (High throughput replicative Lifespan measurement) flow cytometry assay in MEP yeast; type: cell-based; conditions: 10 μM, 24 hours in culture, 3-4 replicate wells, repeat of screen hits
Description: Cells were labeled with NHS-fluorescein as described above, then diluted to 20 cells/μL in media. 80 μL/well was aliquoted to 384-well plates, which were covered with a breathable membrane and placed on a shaker platform in a humidified incubator. After 3 hours, the plates were removed from the incubator and each well was treated with 20 μL pre-warmed, 30° C. 5 μM β-estradiol in media. In the case of ibuprofen or compound-treated wells, the compound was diluted in this volume at a 5× concentration to achieve a final concentration of 10 μM, or 100 μM for ibuprofen. The plates were then returned to the incubator. At indicated times, one plate was removed from the incubator and placed on an autosampler cooled to 8° C. attached to a Stratedigm flow cytometer. The cytometer was set to automatically add and mix 20 μL of aqueous solution containing 60 μg/mL CF405M-WGA (Biotium 29028) and propidium iodide (Sigma P4864) prior to acquiring 80 μL of sample for each well.
In order to test the lifespan of model organisms on both a large-scale and with quick turn-around, a massively multiplexed method was developed to measure replicative lifespan in the short-lived model organisms Saccharomyces cerevisiae. The protocol uses green-fluorescent labeling to identify progenitor cells, red-fluorescent labeling to differentiate non-viable cells, and blue-fluorescent labeling of bud scars to determine replicative age (FIG. 1). Each parameter is measured using a flow cytometer.
To achieve high throughput, the measurement system was automated, and the assay was performed in 384-well plates. The assay was performed using an autosampler-equipped flow cytometer, in a volume of 100 μL. Growth of even a single cell and its progeny in such a small volume will result in nutrient starvation before the natural replicative lifespan is exhausted; therefore to circumvent this issue, High-Life experiments were performed in the background of the Mother Enrichment Program (MEP) (Lindstrom and Gottschling, Genetics. 2009 October; 183(2):413-22). MEP strains express a CRE recombinase fused to an estrogen-binding domain for only a short time after birth. In the presence of β-estradiol, the recombinase translocates to the nucleus where it can excise two essential genes that have been modified to contain the exogenous LoxP sequence. Addition of β-estradiol to the media thus renders newborn daughters inviable without affecting existing mother cells, preventing exponential growth of the cell population and nutrient depletion (FIG. 2A).
The High-Life method was then tested to determine if it was suitable to screening for compounds that extend replicative lifespan. […] The effect of these compounds on High-Life readings was assayed after 24 hours in culture at 10 μM concentration. As a positive control, ibuprofen was used.

SMILES: CC(C)C[C@@H](C=O)NC(=O)[C@H](CC(C)C)NC(=O)[C@H](CC(C)C)NC(=O)OCc1ccccc1 [MG-132] (Cbz-Leu-Leu-Leu-aldehyde)
- rate of fluorescence increase in proteasome assay (negative control) (proteasome; 50 μM MG132): low rate of fluorescence increase

SMILES: Nc1nc2nc[nH]c2c(=O)[nH]1 [guanine]
- proteasome activity in ΔUBR2 cells (proteasome; ΔUBR2 cells, presence vs absence of guanine): did not alter proteasome activity
- reversal of lifespan extension conferred by SIR2 overexpression (LPT step 2) (S. cerevisiae; SIR2 overexpression, guanine as epistatic agent): did not reverse the lifespan extension
- suppression of lifespan extension in ΔHXK2 strain (LPT step 2) (S. cerevisiae; ΔHXK2 strain, guanine as epistatic agent): did not suppress lifespan extension
- suppression of lifespan extension in ΔTOR1 strain (LPT step 2) (S. cerevisiae; ΔTOR1 strain, guanine as epistatic agent): did not suppress lifespan extension
- suppression of lifespan extension from UBR2 deletion (LPT step 2) (S. cerevisiae; ΔUBR2 strain, guanine supplementation): partially suppressed lifespan extension

SMILES: CC1=C(O)C(=O)[C@@H]2O[C@@H]2C1=O [terreic acid]
- lifespan of C. elegans (C. elegans): measurable extension of lifespan; also recorded: statistically significant lifespan extension
- average High-Life readings (progenitor fraction viable vs CF405M intensity) relative to controls (Saccharomyces cerevisiae): at least slightly above controls
- extension of mean RLS (S. cerevisiae; 10 μM compound, wild-type haploid cells, Replicator device): 15%
